{
  "source": "patent US20260209214A1",
  "about": "“LSD1 MODULATORS” (RECURSION PHARMACEUTICALS, INC., priority 2022, published 2026)",
  "data": [
    {"biological_target": "Recombinant human LSD1 (Homo sapiens, UniProt O60341)", "experiment": "LSD1 inhibition assay (HTRF LSD1 Histone H3K4 mono-demethylation assay, me1->me0)", "format": "biochemical", "settings": "20 nM recombinant human LSD1, 95 nM H3K4(me1) biotinylated peptide, 15 min preincubation, 60 min at 25° C., read-out: LSD1 inhibition IC50 (nM range)", "method": "LSD1 biochemical activity was measured using the HTRF® LSD1 Histone H3K4 mono-demethylation assay (me1->me0). Briefly, the enzymatic buffer was prepared by addition of 50 mM Tris-HCl (Sigma cat #T2663-IL), 50 mM NaCl (ThermoFisher cat #AM9759) and 0.01% Tween 20 (ThermoFisher cat #J20605.AP) in distilled water (final pH 8.5). This buffer was supplemented with 10 μM FAD (Fisher Scientific cat #11411838) and 1 mM DTT (Sigma cat #D0632). For the assay, H3K4(me1) biotinylated peptide substrate (Anaspec, cat #64355) was added to provide a final assay concentration of 95 nM. The streptavidin-XL665 (Cisbio cat #610SAXLA) and H3K4 me0-Eu(K) antibody-cryptate (Cisbio, cat #61 KAOKAD) detection reagents were mixed according to the manufacturer's instructions. Test compounds were diluted in DMSO in a series of 10 semi-log step doses; 10 nL of each compound dose were dispensed in 384 well plates. Recombinant human LSD1 was diluted into enzymatic buffer to provide a final assay concentration of 20 nM and added to the tested compounds for 15 minutes. The reaction was started by addition of the substrate and incubated at 25° C. for 60 minutes. The detection reagents were added, and the plate was incubated in the dark for 90 minutes. Fluorescence was measured on an Envision 2103 plate reader with optical setup for […] in the HTRF mode. The ratio of acceptor and donor emission signals was calculated for each well. Percent inhibition values were calculated from the HTRF ratios at different doses and fitted to a 4-parameter logistic curve to determine IC50 values. […]", "units": {"IC50": "nM"}, "values": [
      {"smiles": "C[C@@]1(O)C[C@H]2CN(c3ccc(CC4CNCCO4)cc3-c3ccc(C#N)c(F)c3)C[C@H]2C1", "note": "(mixture of isomers) [Example 114, 2′-[(3aR,5S,6aS)-5-hydroxy-5-methyl-octahydrocyclopenta[c]pyrrol-2-yl]-3-fluoro-5′-[(morpholin-2-yl)methyl]-[1,1′-biphenyl]-4-carbonitrile]", "IC50": "100 to 1000"},
      {"smiles": "N#Cc1ccc(-c2cccc(CN3[C@@H]4CC[C@H]3[C@@H](N)C4)c2-c2ccns2)cc1", "note": "(racemic) [Example 170, 3'-{[(1S,2S,4R)-2-amino-7-azabicyclo[2.2.1]heptan-7-yl]methyl}-2'-(1,2-thiazol-5-yl)-[1,1'-biphenyl]-4-carbonitrile]", "IC50": "10 to 25"},
      {"smiles": "CN[C@H]1C[C@H]2CC[C@@H]1N2Cc1cccc(-c2ccc(C#N)c(F)c2)c1C1CC1", "note": "(racemic) [Example 175]", "IC50": "10 to 25"},
      {"smiles": "N#Cc1ccc(-c2cccc(CN3[C@@H]4CC[C@H]3[C@@H](N)C4)c2C2CC2)cc1F", "note": "(racemic) [Example 176, 3'-{[(1S,2S,4R)-2-amino-7-azabicyclo[2.2.1]heptan-7-yl]methyl}-2'-cyclopropyl-3-fluoro-[1,1'-biphenyl]-4-carbonitrile]", "IC50": "25 to 100"},
      {"smiles": "N#Cc1ccc(-c2cccc(CN3[C@@H]4CC[C@H]3[C@@H](N)C4)c2OC(F)F)cc1F", "note": "(racemic) [Example 179, 3'-{[(1S,2S,4R)-2-amino-7-azabicyclo[2.2.1]heptan-7-yl]methyl}-2'-(difluoromethoxy)-3-fluoro-[1,1'-biphenyl]-4-carbonitrile]", "IC50": "10 to 25"},
      {"smiles": "COc1c(CN2[C@@H]3CC[C@H]2[C@@H](N)C3)cccc1-c1ccc(C#N)c(F)c1", "note": "(racemic) [Example 180, 3'-{[(1S,2S,4R)-2-amino-7-azabicyclo[2.2.1]heptan-7-yl]methyl}-3-fluoro-2'-methoxy-[1,1'-biphenyl]-4-carbonitrile]", "IC50": "25 to 100"},
      {"smiles": "N#Cc1ccc(-c2ccc(F)c(CN3[C@@H]4CC[C@H]3[C@@H](N)C4)c2C2CC2)cc1F", "note": "(racemic) [Example 181, N[C@@H]1C[C@@H]2CC[C@H]1N2Cc3c(F)ccc(c4ccc(C#N)c(F)c4)c3C5CC5]", "IC50": "10 to 25"},
      {"smiles": "N#Cc1ccc(-c2cccc(CN3[C@@H]4CC[C@H]3[C@@H](N)C4)c2C2CC2)cc1", "note": "(racemic) [Example 191, 3'-{[(1S,2S,4R)-2-amino-7-azabicyclo[2.2.1]heptan-7-yl]methyl}-2'-cyclopropyl-[1,1'-biphenyl]-4-carbonitrile]", "IC50": "25 to 100"},
      {"smiles": "N#Cc1ccc(-c2cccc(CN3[C@@H]4CC[C@H]3[C@@H](N)C4)c2C(F)(F)F)cc1F", "note": "(racemic) [Example 200, 3'-{[(1S,2S,4R)-2-amino-7-azabicyclo[2.2.1]heptan-7-yl]methyl}-3-fluoro-2'-(trifluoromethyl)-[1,1'-biphenyl]-4-carbonitrile]", "IC50": "25 to 100"},
      {"smiles": "N#Cc1ccc(-c2cccc(CN3[C@@H]4CC[C@H]3[C@@H](N)C4)c2N2CCC2)cc1F", "note": "(racemic) [Example 203, 3'-{[(1S,2S,4R)-2-amino-7-azabicyclo[2.2.1]heptan-7-yl]methyl}-2'-(azetidin-1-yl)-3-fluoro-[1,1'-biphenyl]-4-carbonitrile]", "IC50": "25 to 100"},
      {"smiles": "CC1(C)CN(c2ccc(CN3[C@@H]4CC[C@H]3[C@@H](N)C4)cc2-c2ccc(C#N)c(F)c2)C1", "note": "(racemic) [Example 206, 5'-{[(1S,2S,4R)-2-amino-7-azabicyclo[2.2.1]heptan-7-yl]methyl}-2'-(3,3-dimethylazetidin-1-yl)-3-fluoro-[1,1'-biphenyl]-4-carbonitrile]", "IC50": "10 to 25"},
      {"smiles": "N#Cc1ccc(-c2ccc(F)c(CN3[C@@H]4CC[C@H]3[C@@H](N)C4)c2-c2ccns2)cc1F", "note": "(racemic) [Example 207, 3'-{[(1S,2S,4R)-2-amino-7-azabicyclo[2.2.1]heptan-7-yl]methyl}-3,4'-difluoro-2'-(1,2-thiazol-5-yl)-[1,1'-biphenyl]-4-carbonitrile]", "IC50": "< 10"},
      {"smiles": "COCC1CCN(c2ccc(CN3[C@@H]4CC[C@H]3[C@@H](N)C4)cc2-c2ccc(C#N)c(F)c2)CC1", "note": "(racemic) [Example 209, 5'-{[(1S,2S,4R)-2-amino-7-azabicyclo[2.2.1]heptan-7-yl]methyl}-3-fluoro-2'-[4-(methoxymethyl)piperidin-1-yl]-[1,1'-biphenyl]-4-carbonitrile]", "IC50": "10 to 25"},
      {"smiles": "CC(C)Oc1c(CN2[C@@H]3CC[C@H]2[C@@H](N)C3)cccc1-c1ccc(C#N)c(F)c1", "note": "(racemic) [Example 213]", "IC50": "25 to 100"},
      {"smiles": "N#Cc1ccc(-c2cccc(CN3[C@@H]4CC[C@H]3[C@@H](N)C4)c2C2CCC2)cc1F", "note": "(racemic) [Example 218, 3'-{[(1S,2S,4R)-2-amino-7-azabicyclo[2.2.1]heptan-7-yl]methyl}-2'-cyclobutyl-3-fluoro-[1,1'-biphenyl]-4-carbonitrile]", "IC50": "10 to 25"},
      {"smiles": "CC(C)c1c(CN2[C@@H]3CC[C@H]2[C@@H](N)C3)cccc1-c1ccc(C#N)c(F)c1", "note": "(racemic) [Example 220, 3'-{[(1S,2S,4R)-2-amino-7-azabicyclo[2.2.1]heptan-7-yl]methyl}-3-fluoro-2'-(propan-2-yl)-[1,1'-biphenyl]-4-carbonitrile]", "IC50": "25 to 100"},
      {"smiles": "COc1ccc(-c2ccc(CN3[C@@H]4CC[C@H]3[C@@H](N)C4)cc2-c2ccc(C#N)c(F)c2)cc1F", "note": "(racemic) [Example 222, 4-(4-{[(1S,2S,4R)-2-amino-7-azabicyclo[2.2.1]heptan-7-yl]methyl}-3'-fluoro-4'-methoxy-[1,1'-biphenyl]-2-yl)-2-fluorobenzonitrile]", "IC50": "10 to 25"},
      {"smiles": "N#Cc1ccc(-c2cc(CN3[C@@H]4CC[C@H]3[C@@H](N)C4)ccc2N2CCC3(CCCO3)CC2)cc1F", "note": "(racemic) [Example 224, 5'-{[(1S,2S,4R)-2-amino-7-azabicyclo[2.2.1]heptan-7-yl]methyl}-3-fluoro-2'-{1-oxa-8-azaspiro [4.5]decan-8-yl}-[1,1'-biphenyl]-4-carbonitrile]", "IC50": "10 to 25"},
      {"smiles": "C[C@]1(N)C[C@H]2CC[C@@H]1N2Cc1cccc(-c2ccc(C#N)c(F)c2)c1C1CC1", "note": "(racemic) [Example 229, 3'-{[(1S,2S,4R)-2-amino-2-methyl-7-azabicyclo[2.2.1]heptan-7-yl]methyl}-2'-cyclopropyl-3-fluoro-[1,1'-biphenyl]-4-carbonitrile]", "IC50": "25 to 100"},
      {"smiles": "COc1ccc(-c2ccc(CN3[C@@H]4CC[C@H]3[C@@H](N)C4)cc2-c2ccc(C#N)c(F)c2)cn1", "note": "(racemic) [Example 230, 5'-{[(1S,2S,4R)-2-amino-7-azabicyclo[2.2.1]heptan-7-yl]methyl}-3-fluoro-2'-(6-methoxypyridin-3-yl)-[1,1'-biphenyl]-4-carbonitrile]", "IC50": "10 to 25"},
      {"smiles": "N#Cc1ccc(-c2cc(CN3[C@@H]4CC[C@H]3[C@@H](N)C4)ccc2OC[C@@H]2CCCOC2)cc1F", "note": "(racemic) [Example 231, 5'-{[(1S,2S,4R)-2-amino-7-azabicyclo[2.2.1]heptan-7-yl]methyl}-3-fluoro-2'-{[(3R)-oxan-3-yl]methoxy}-[1,1'-biphenyl]-4-carbonitrile]", "IC50": "10 to 25"},
      {"smiles": "COC1(C)CCN(c2ccc(CN3[C@@H]4CC[C@H]3[C@@H](N)C4)cc2-c2ccc(C#N)c(F)c2)CC1", "note": "(racemic) [Example 232, 5'-{[(1S,2S,4R)-2-amino-7-azabicyclo[2.2.1]heptan-7-yl]methyl}-3-fluoro-2'-(4-methoxy-4-methylpiperidin-1-yl)-[1,1'-biphenyl]-4-carbonitrile]", "IC50": "10 to 25"},
      {"smiles": "N#Cc1ccc(-c2cc(CN3[C@@H]4CC[C@H]3[C@@H](N)C4)ccc2N2CCC(CF)CC2)cc1F", "note": "(racemic) [Example 235, 5'-{[(1S,2S,4R)-2-amino-7-azabicyclo[2.2.1]heptan-7-yl]methyl}-3-fluoro-2'-[4-(fluoromethyl)piperidin-1-yl]-[1,1'-biphenyl]-4-carbonitrile]", "IC50": "10 to 25"},
      {"smiles": "N#Cc1ccc(-c2cccc(CN3[C@@H]4CC[C@H]3[C@@H](N)C4)c2N2CCC(F)CC2)cc1F", "note": "(racemic) [Example 241, 3'-{[(1S,2S,4R)-2-amino-7-azabicyclo[2.2.1]heptan-7-yl]methyl}-3-fluoro-2'-(4-fluoropiperidin-1-yl)-[1,1'-biphenyl]-4-carbonitrile]", "IC50": "100 to 1000"},
      {"smiles": "N#Cc1ccc(-c2cccc(CN3[C@@H]4CC[C@H]3[C@@H](N)C4)c2-c2cccs2)cc1F", "note": "(racemic) [Example 243, 3'-{[(1S,2S,4R)-2-amino-7-azabicyclo[2.2.1]heptan-7-yl]methyl}-3-fluoro-2'-(thiophen-2-yl)-[1,1'-biphenyl]-4-carbonitrile]", "IC50": "25 to 100"},
      {"smiles": "N#Cc1ccc(-c2cccc(CN3[C@@H]4CC[C@H]3[C@@H](N)C4)c2-c2ccsc2)cc1F", "note": "(racemic) [Example 244, 3'-{[(1S,2S,4R)-2-amino-7-azabicyclo[2.2.1]heptan-7-yl]methyl}-3-fluoro-2'-(thiophen-3-yl)-[1,1'-biphenyl]-4-carbonitrile]", "IC50": "25 to 100"}
    ]}
  ]
}
